The data set relates to PCSK9 mRNA. The data set is described as follows: PCSK9 siRNA screening in HepG2 cells (lipofectamine 2000 transfection, PCSK9 mRNA by Quantigene, normalized to GAP-DH). It is filed as cell-based, human. Particulars: for Mean percent remaining mRNA transcript at siRNA concentration/in cell type 30 nM/HepG2: 30 nM siRNA; for Mean percent remaining mRNA transcript at siRNA concentration/in cell type 3 nM/HepG2: 3 nM siRNA; for Mean percent remaining mRNA transcript at siRNA concentration/in cell type 100 nM/HepG2: 100 nM siRNA. Summed up:
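HepG2 cells, grown in MEM with 10% fetal calf serum, antibiotics, non-essential amino acids and sodium pyruvate at 37° C. and 5% CO2, were plated at 2.0×10^4 cells/well in 96-well plates and transfected directly with siRNA using lipofectamine 2000. After 24 hours, cells were lysed and PCSK9 mRNA was measured by Quantigene and normalized to GAP-DH mRNA.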

pIC50: −log10 of the molar value. In the oligonucleotide strings, read from the 5' end, every base follows the letter of its sugar. An asterisk marks phosphorothioate; unmarked linkages are phosphodiester. Other units and linkages are bracketed, terminal groups are in braces. A string of capitals states the bases alone. d = 2'-deoxy (DNA); r = 2'-OH (RNA)

On to “AD-9596: PCSK9 siRNA (sense rGrArArGrArUrGrArGrUrGrGrCrGrArCrCrUrGdT*dT; antisense rCrArGrGrUrCrGrCrCrArCrUrCrArUrCrUrUrCdT*dT)”, for which the “Mean percent remaining mRNA transcript at siRNA concentration/in cell type 30 nM/HepG2” value is given as 37%.

In the case of “AD-9597: PCSK9 siRNA (sense rArGrCrCrArArGrCrCrUrCrUrUrCrUrUrArCrUdT*dT; antisense rArGrUrArArGrArArGrArGrGrCrUrUrGrGrCrUdT*dT)”, the pIC50 was 10.40, the “Mean percent remaining mRNA transcript at siRNA concentration/in cell type 3 nM/HepG2” value is 21% and the “Mean percent remaining mRNA transcript at siRNA concentration/in cell type 30 nM/HepG2” value came to 23%. Take “AD-9598: PCSK9 siRNA (sense rCrCrUrGrGrUrGrGrArGrGrUrGrUrArUrCrUrCdT*dT; antisense rGrArGrArUrArCrArCrCrUrCrCrArCrCrArGrGdT*dT)”: the “Mean percent remaining mRNA transcript at siRNA concentration/in cell type 30 nM/HepG2” value stood at 83% and the “Mean percent remaining mRNA transcript at siRNA concentration/in cell type 100 nM/HepG2” value came out at 69%. As for “AD-9599: PCSK9 siRNA (sense rUrUrCrUrGrGrArUrGrGrCrArUrCrUrArGrCrCdT*dT; antisense rGrGrCrUrArGrArUrGrCrCrArUrCrCrArGrArAdT*dT)”, the “Mean percent remaining mRNA transcript at siRNA concentration/in cell type 30 nM/HepG2” value is given as 139%.

Regarding “AD-9600: PCSK9 siRNA (sense rGrUrCrGrUrGrCrUrGrGrUrCrArCrCrGrCrUrGdT*dT; antisense rCrArGrCrGrGrUrGrArCrCrArGrCrArCrGrArCdT*dT)”, the “Mean percent remaining mRNA transcript at siRNA concentration/in cell type 30 nM/HepG2” value was 112%.

Turning to “AD-9601: PCSK9 siRNA (sense rArGrGrGrUrCrArUrGrGrUrCrArCrCrGrArCrUdT*dT; antisense rArGrUrCrGrGrUrGrArCrCrArUrGrArCrCrCrUdT*dT)”, the “Mean percent remaining mRNA transcript at siRNA concentration/in cell type 30 nM/HepG2” value stood at 111%. Regarding “AD-9602: PCSK9 siRNA (sense rCrArGrCrGrGrCrCrGrGrGrArUrGrCrCrGrGrCdT*dT; antisense rGrCrCrGrGrCrArUrCrCrCrGrGrCrCrGrCrUrGdT*dT)”, the “Mean percent remaining mRNA transcript at siRNA concentration/in cell type 30 nM/HepG2” value is given as 126%. In the case of “AD-9603: PCSK9 siRNA (sense rUrUrUrCrUrGrGrArUrGrGrCrArUrCrUrArGrCdT*dT; antisense rGrCrUrArGrArUrGrCrCrArUrCrCrArGrArArAdT*dT)”, the “Mean percent remaining mRNA transcript at siRNA concentration/in cell type 30 nM/HepG2” value was determined as 123%.

Take “AD-9604: PCSK9 siRNA (sense rCrUrCrArGrCrCrArArCrCrCrGrCrUrCrCrArCdT*dT; antisense rGrUrGrGrArGrCrGrGrGrUrUrGrGrCrUrGrArGdT*dT)”: the “Mean percent remaining mRNA transcript at siRNA concentration/in cell type 30 nM/HepG2” value was 49% and the “Mean percent remaining mRNA transcript at siRNA concentration/in cell type 100 nM/HepG2” value was found to be 35%. Turning to “AD-9605: PCSK9 siRNA (sense rUrGrGrUrGrArArGrArUrGrArGrUrGrGrCrGrAdT*dT; antisense rUrCrGrCrCrArCrUrCrArUrCrUrUrCrArCrCrAdT*dT)”, the negative logarithm of the IC50 (pIC50) is 9.57, the “Mean percent remaining mRNA transcript at siRNA concentration/in cell type 3 nM/HepG2” value is on record as 31% and the “Mean percent remaining mRNA transcript at siRNA concentration/in cell type 30 nM/HepG2” value was found to be 27%. Turning to “AD-9606: PCSK9 siRNA (sense rUrCrGrUrGrCrUrGrGrUrCrArCrCrGrCrUrGrCdT*dT; antisense rGrCrArGrCrGrGrUrGrArCrCrArGrCrArCrGrAdT*dT)”, the “Mean percent remaining mRNA transcript at siRNA concentration/in cell type 30 nM/HepG2” value is given as 107%. With “AD-9607: PCSK9 siRNA (sense rGrGrArGrCrUrGrGrUrGrCrUrArGrCrCrUrUrGdT*dT; antisense rCrArArGrGrCrUrArGrCrArCrCrArGrCrUrCrCdT*dT)”, the pIC50 is 9.70, the “Mean percent remaining mRNA transcript at siRNA concentration/in cell type 3 nM/HepG2” value is listed as 28% and the “Mean percent remaining mRNA transcript at siRNA concentration/in cell type 30 nM/HepG2” value stood at 32%. In the case of “AD-9608: PCSK9 siRNA (sense rUrGrCrUrArGrCrCrUrUrGrCrGrUrUrCrCrGrAdT*dT; antisense rUrCrGrGrArArCrGrCrArArGrGrCrUrArGrCrAdT*dT)”, the “Mean percent remaining mRNA transcript at siRNA concentration/in cell type 30 nM/HepG2” value turned out to be 37%. “AD-9609: PCSK9 siRNA (sense rCrArCrGrGrUrArCrCrGrGrGrCrGrGrArUrGrAdT*dT; antisense rUrCrArUrCrCrGrCrCrCrGrGrUrArCrCrGrUrGdT*dT)”: the “Mean percent remaining mRNA transcript at siRNA concentration/in cell type 30 nM/HepG2” value was found to be 71% and the “Mean percent remaining mRNA transcript at siRNA concentration/in cell type 100 nM/HepG2” value was found to be 66%. Regarding “AD-9610: PCSK9 siRNA (sense rArGrGrUrGrUrArUrCrUrCrCrUrArGrArCrArCdT*dT; antisense rGrUrGrUrCrUrArGrGrArGrArUrArCrArCrCrUdT*dT)”, the pIC50 was 10.40, the “Mean percent remaining mRNA transcript at siRNA concentration/in cell type 3 nM/HepG2” value came to 34% and the “Mean percent remaining mRNA transcript at siRNA concentration/in cell type 30 nM/HepG2” value came out at 36%. Take “AD-9611: PCSK9 siRNA (sense rUrCrCrUrArGrArCrArCrCrArGrCrArUrArCrAdT*dT; antisense rUrGrUrArUrGrCrUrGrGrUrGrUrCrUrArGrGrAdT*dT)”: the “Mean percent remaining mRNA transcript at siRNA concentration/in cell type 30 nM/HepG2” value is recorded as 48%. On to “AD-9612: PCSK9 siRNA (sense rArCrCrArCrCrGrGrGrArArArUrCrGrArGrGrGdT*dT; antisense rCrCrCrUrCrGrArUrUrUrCrCrCrGrGrUrGrGrUdT*dT)”, for which the “Mean percent remaining mRNA transcript at siRNA concentration/in cell type 30 nM/HepG2” value was 122%.

“AD-9614: PCSK9 siRNA (sense rGrGrCrArArCrUrUrCrCrGrGrGrArCrGrArUrGdT*dT; antisense rCrArUrCrGrUrCrCrCrGrGrArArGrUrUrGrCrCdT*dT)”: the “Mean percent remaining mRNA transcript at siRNA concentration/in cell type 30 nM/HepG2” value is 100%. As to “AD-9615: PCSK9 siRNA (sense rUrUrCrCrGrGrGrArCrGrArUrGrCrCrUrGrCrCdT*dT; antisense rGrGrCrArGrGrCrArUrCrGrUrCrCrCrGrGrArAdT*dT)”, the “Mean percent remaining mRNA transcript at siRNA concentration/in cell type 30 nM/HepG2” value was 116%. Turning to “AD-9616: PCSK9 siRNA (sense rArGrCrArCrCrUrGrCrUrUrUrGrUrGrUrCrArCdT*dT; antisense rGrUrGrArCrArCrArArArGrCrArGrGrUrGrCrUdT*dT)”, the “Mean percent remaining mRNA transcript at siRNA concentration/in cell type 30 nM/HepG2” value is 84% and the “Mean percent remaining mRNA transcript at siRNA concentration/in cell type 100 nM/HepG2” value is on record as 74%.

Regarding “AD-9617: PCSK9 siRNA (sense rArUrGrCrUrGrUrCrUrGrCrCrGrArGrCrCrGrGdT*dT; antisense rCrCrGrGrCrUrCrGrGrCrArGrArCrArGrCrArUdT*dT)”, the “Mean percent remaining mRNA transcript at siRNA concentration/in cell type 30 nM/HepG2” value is recorded as 111%. On to “AD-9618: PCSK9 siRNA (sense rGrArGrCrArUrGrGrArArUrCrCrCrGrGrCrCrCdT*dT; antisense rGrGrGrCrCrGrGrGrArUrUrCrCrArUrGrCrUrCdT*dT)”, for which the “Mean percent remaining mRNA transcript at siRNA concentration/in cell type 30 nM/HepG2” value is on record as 90%.

“AD-9619: PCSK9 siRNA (sense rUrCrArGrGrArGrCrCrGrGrGrArCrGrUrCrArGdT*dT; antisense rCrUrGrArCrGrUrCrCrCrGrGrCrUrCrCrUrGrAdT*dT)”: the “Mean percent remaining mRNA transcript at siRNA concentration/in cell type 30 nM/HepG2” value is listed as 61% and the “Mean percent remaining mRNA transcript at siRNA concentration/in cell type 100 nM/HepG2” value turned out to be 42%. “AD-9620: PCSK9 siRNA (sense rCrArGrGrArGrCrCrGrGrGrArCrGrUrCrArGrCdT*dT; antisense rGrCrUrGrArCrGrUrCrCrCrGrGrCrUrCrCrUrGdT*dT)”: the “Mean percent remaining mRNA transcript at siRNA concentration/in cell type 30 nM/HepG2” value stood at 77% and the “Mean percent remaining mRNA transcript at siRNA concentration/in cell type 100 nM/HepG2” value is given as 44%.

As a reminder, the pIC50 is the IC50 on a negative log10 scale, so that one unit is a factor of ten. Lower therefore signals a high IC50.

The values are drawn from patent US20120016009A1, “Optimized Methods For Delivery Of DSRNA Targeting The PCSK9 Gene” (priority 2008, published 2012).
